Reference: US8097722B2 (priority 2008, dated 2012)
Like-named read-outs stand apart in the source and are kept apart here. Peptide text beside a SMILES is read from it. * marks the point of attachment. MeOSuc = COC(=O)CCC(=O)*; CH2Cl = ClC*

Assays:
Purified PMPMEase = biological target: T1, Purified PMPMEase (Sus scrofa, UniProt Q29550); type: biochemical, porcine
T1 construct: from tissue; host or cells: porcine liver supernatant, purified by column chromatography
T1 sequence (Q29550 19-566): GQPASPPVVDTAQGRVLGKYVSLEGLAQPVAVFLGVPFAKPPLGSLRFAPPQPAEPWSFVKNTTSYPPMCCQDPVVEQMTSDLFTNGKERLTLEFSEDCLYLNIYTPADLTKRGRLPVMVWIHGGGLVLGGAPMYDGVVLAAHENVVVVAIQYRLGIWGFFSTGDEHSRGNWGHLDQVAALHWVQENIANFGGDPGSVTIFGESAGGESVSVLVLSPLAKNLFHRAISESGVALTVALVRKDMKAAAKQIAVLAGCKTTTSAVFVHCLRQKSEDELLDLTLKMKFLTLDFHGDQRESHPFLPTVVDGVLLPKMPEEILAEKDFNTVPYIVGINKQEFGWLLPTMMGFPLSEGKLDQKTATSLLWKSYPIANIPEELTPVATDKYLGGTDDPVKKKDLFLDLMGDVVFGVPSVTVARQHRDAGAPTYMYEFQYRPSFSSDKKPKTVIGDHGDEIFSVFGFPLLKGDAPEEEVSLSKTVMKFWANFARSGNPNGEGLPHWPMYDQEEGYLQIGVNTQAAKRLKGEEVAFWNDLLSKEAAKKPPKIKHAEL

[1] = Aqueous solubility (statement); type: physicochemical
porcine liver PMPMEase = biological target: T2, porcine liver PMPMEase (Sus scrofa, UniProt Q29550); experiment: PMPMEase inhibition assay of PMSF, GESF and FESF (IC50); type: biochemical; conditions: for increase in potency relative to PMSF: ratio of IC50 values vs PMSF
T2 construct: the supernatant fraction was prepared from 100 g of porcine liver; from tissue; host or cells: porcine liver 40,000×g supernatant
T2 sequence (Q29550 19-566): T1 sequence (Q29550 19-566)

brain PMPMEase = type: biochemical, porcine
liver PMPMEase = type: biochemical, porcine
[2] = 0.01 mM compound, 20 min preincubation at 37° C., HCFCM 1 mM
[3] = 1 mM compound, 20 min preincubation at 37° C., HCFCM 1 mM

NC(=O)OCc1ccccc1 [Benzyl carbamate]
Residual activity (% of Control, SEM, n = 3) 0.01 mM (Purified PMPMEase): 117 ± 11 % of Control
Residual activity (% of Control, SEM, n = 3) 1 mM (Purified PMPMEase): 124 ± 5 % of Control

COC(=O)NS(=O)(=O)c1ccc(N)cc1 [Asulam]
Residual activity (% of Control, SEM, n = 3) 0.01 mM (Purified PMPMEase): 113 ± 6.3 % of Control
Residual activity (% of Control, SEM, n = 3) 1 mM (Purified PMPMEase): 91.7 ± 6.9 % of Control

CC(C)=CCC/C(C)=C/CSCCS(=O)(=O)F [GESF, S-trans-geranyl-2-thioethanesulfonyl fluoride]
aqueous solubility [1]: not aqueous-soluble
IC50 (porcine liver PMPMEase): 169 ± 6.8 nM
increase in potency relative to PMSF (porcine liver PMPMEase): over 97 fold

CCC(C)C(O)C(C)C(=O)C(C)/C=C(\C)CC(C)C1OC(=O)C1C (centres unmarked) [Ebelactone A]
Residual activity (% of Control, SEM, n = 3) 0.01 mM (Purified PMPMEase): 123 ± 7 % of Control
Residual activity (% of Control, SEM, n = 3) 1 mM (Purified PMPMEase): 18.3 ± 0.3 % of Control

CC(C)=CCC/C(C)=C/CC/C(C)=C/CSCCS(=O)(=O)F [FESF, S-trans,trans-farnesyl-2-thioethanesulfonyl fluoride]
aqueous solubility [1]: not aqueous-soluble
IC50 (porcine liver PMPMEase): 37 ± 0.42 nM
increase in potency relative to PMSF (porcine liver PMPMEase): > 440 fold

CCOP(=O)(OCC)Oc1ccc([N+](=O)[O-])cc1 [Paraoxon]
Brain Mean (mean percent inhibition relative to the controls) (brain PMPMEase): 87%
Residual activity (% of Control, SEM, n = 3) 0.01 mM (Purified PMPMEase; [2]): 0 ± 0 % of Control
Residual activity (% of Control, SEM, n = 3) 1 mM (Purified PMPMEase; [3]): 0 ± 0 % of Control
Liver Mean (mean percent inhibition relative to the controls) (liver PMPMEase): 100%

O=S(=O)(F)Cc1ccccc1 [Phenylmethylsulfonyl fluoride, phenylmethylsulfonyl fluoride]
Residual activity (% of Control, SEM, n = 3) 0.01 mM (Purified PMPMEase; [2]): 79.5 ± 1.8 % of Control
Residual activity (% of Control, SEM, n = 3) 1 mM (Purified PMPMEase; [3]): 0 ± 0 % of Control

COC(=O)CCC(=O)N[C@@H](C)C(=O)N[C@@H](C)C(=O)N1CCC[C@H]1C(=O)N[C@H](C(=O)CCl)C(C)C [N- (methoxysuccinyl)-L- Ala-L-Ala-L-Pro-L- Val CMK] (MeOSuc-AAPV-CH2Cl)
Residual activity (% of Control, SEM, n = 3) 0.01 mM (Purified PMPMEase; [2]): 105 ± 3.1 % of Control
Residual activity (% of Control, SEM, n = 3) 1 mM (Purified PMPMEase; [3]): 61.8 ± 2.0 % of Control

CC(C)CC(N)C(=O)CCl [L-Leu chloromethyl ketone (CMK)]
Residual activity (% of Control, SEM, n = 3) 0.01 mM (Purified PMPMEase): 93.3 ± 1.0 % of Control
Residual activity (% of Control, SEM, n = 3) 1 mM (Purified PMPMEase): 60.4 ± 1.9 % of Control

Cc1ccc(S(=O)(=O)N[C@@H](CCCCN)C(=O)CCl)cc1 [Nα-tosyl-L-Lys CMK]
Residual activity (% of Control, SEM, n = 3) 0.01 mM (Purified PMPMEase): 98.3 ± 1.9 % of Control
Residual activity (% of Control, SEM, n = 3) 1 mM (Purified PMPMEase): 98.6 ± 7.3 % of Control

O=C(N[C@@H](Cc1ccccc1)C(=O)CCl)OCc1ccccc1 [N-carbobenzyloxy-L- Phe CMK]
Residual activity (% of Control, SEM, n = 3) 0.01 mM (Purified PMPMEase): 94.8 ± 1.3 % of Control
Residual activity (% of Control, SEM, n = 3) 1 mM (Purified PMPMEase): 57.0 ± 2.0 % of Control

CCC(C)C(O)C(C)C(=O)C(C)/C=C(\C)CC(C)C1OC(=O)C1CC (centres unmarked) [Ebelactone B]
Residual activity (% of Control, SEM, n = 3) 0.01 mM (Purified PMPMEase): 56.4 ± 1.0 % of Control
Residual activity (% of Control, SEM, n = 3) 1 mM (Purified PMPMEase): 0 ± 0 % of Control

CC(C)=CCC/C(C)=C/CC/C(C)=C/CC/C(C)=C/CS(=O)(=O)F [GGESF, S-geranylgeranyl sulfonyl fluoride]
higher potency than FESF (concluded from the data, not tested) (porcine liver PMPMEase; predicted vs FESF): 2 fold
